Molecules are shown by their SMILES. pIC50: −log10 of the molar value. Some results are limits rather than exact numbers.

In US20230124361A1, “SMALL MOLECULE STING ANTAGONISTS” (CURADEV PHARMA PVT. LTD., priority 2020, published 2023) one finds IC50 data, which are given here for 35 compounds.

T1 sequence (Q86WV6 whole entry R71H/G230A/H232R/R293Q): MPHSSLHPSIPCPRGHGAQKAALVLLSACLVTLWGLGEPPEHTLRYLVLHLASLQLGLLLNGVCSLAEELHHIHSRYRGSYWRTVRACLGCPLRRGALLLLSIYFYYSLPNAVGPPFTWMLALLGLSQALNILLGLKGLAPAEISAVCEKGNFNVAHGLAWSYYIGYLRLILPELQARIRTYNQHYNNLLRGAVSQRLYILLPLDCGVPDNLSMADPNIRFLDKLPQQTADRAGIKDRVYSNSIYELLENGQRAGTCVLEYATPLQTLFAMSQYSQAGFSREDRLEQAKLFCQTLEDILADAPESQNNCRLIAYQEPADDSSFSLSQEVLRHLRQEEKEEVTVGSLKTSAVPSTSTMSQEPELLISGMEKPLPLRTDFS

The assay has as its target T1, STING (Homo sapiens, UniProt Q86WV6, G230A/H232R/R293Q/R71H).
T1 construct: host or cells: THP1-Dual cells (human THP-1 monocyte line with Lucia/SEAP reporters)
Description: Reporter gene expression assay in THP1-Dual cells (IRF pathway Lucia luciferase, 2',3'-cGAMP stimulation). It is filed as cell-based. As to conditions: 10 min preincubation, 5 μM 2',3'-cGAMP, 20 hr, IRF reporter QUANTI-Luc, read-out: THP-1 (HAQ) Activity. As for the experimental part: Reporter Gene Expression Assay in THP-1 Cells
THP1-Dual™ cells (Invivogen) were derived from the human THP-1 monocyte cell line by stable integration of two inducible reporter constructs. As a result, THP1-Dual™ cells allow the simultaneous study of the IRF pathway, by assessing the activity of a secreted luciferase (Lucia) and the NF-κB pathway, by monitoring the activity of secreted SEAP. 5×10^4 THP1-Dual™ cells were seeded in 384-well plates in growth medium and preincubated with novel compounds for 10 minutes followed by stimulation with 5 μM 2′,3′-cGAMP. After 20 hr of stimulation the supernatant was removed and the IRF pathway reporter protein was readily measured in the cell culture supernatant using QUANTI-Luc™ (Invivogen), a luciferase detection reagent on a Spectramax i3X luminometer.
In the tables below, IC50 value ranges for exemplary compounds are given. The IC50 ranges are indicated as “A” for values less than or equal to 1 μM, “B” for values greater than 1 μM and less than or equal to 10 μM, and “C” for values greater than 10 μM.
In general terms: A reporter such as luciferase makes a cellular process visible.
Turning to `O=C(Nc1ccc2c(c1)N(c1ccccc1)CCS2)Nc1ccc2cc[nH]c2c1` [Example 72, 3-(1H-Indol-6-yl)-3-(4-phenyl-3,4-dihydro-2H-benzo[b][1,4]thiazin-6-yl)urea], the pIC50 was at least 6.00. Take `CN1CCN(Cc2ccccc2)c2cc(NC(=O)Nc3ccc4cc[nH]c4c3)ccc21` [Example 73, 1-(4-Benzyl-1-methyl-1,2,3,4-tetrahydroquinoxalin-6-yl)-3-(1H-indol-6-yl)urea]: the pIC50 is 5.00 to 6.00.

As to `O=C(Nc1ccc2c(c1)N(Cc1ccccc1)CC2)Nc1ccc2cc[nH]c2c1` [Example 74, 1-(1-Benzylindolin-6-yl)-3-(1H-indol-6-yl)urea], the pIC50 is 5.00 to 6.00. In the case of `O=C(Nc1ccc2c(c1)OCC(=O)N2c1ccccc1)Nc1ccc2cc[nH]c2c1` [Example 75, 1-(1H-Indol-6-yl)-3-(3-oxo-4-phenyl-3,4-dihydro-2H-benzo[b][1,4]oxazin-7-yl)urea] it was 5.00 to 6.00; in that of `NC(=O)CC1Sc2ccc(NC(=O)Nc3ccc4cc[nH]c4c3)cc2N(Cc2ccccc2)C1=O` (centres unmarked) [Example 76, 2-(6-(3-(1H-Indol-6-yl)ureido)-4-benzyl-3-oxo-3,4-dihydro-2H-benzo[b][1,4]thiazin-2-yl)acetamide], 5.00 to 6.00. Turning to `N#CCC1Sc2ccc(NC(=O)Nc3ccc4cc[nH]c4c3)cc2N(Cc2ccccc2)C1=O` (centres unmarked) [Example 77], the pIC50 was 5.00 to 6.00. `C=CCC1COc2ccc(NC(=O)Nc3ccc4cc[nH]c4c3)cc2N1Cc1ccccc1` (centres unmarked) [Example 78, 1-(3-Allyl-4-benzyl-3,4-dihydro-2H-benzo[b][1,4]oxazin-6-yl)-3-(1H-indol-6-yl)urea]: the pIC50 is at least 6.00.

As to `O=C(Nc1ccc2c(c1)N(Cc1ccccc1)C(CC(O)CO)CO2)Nc1ccc2cc[nH]c2c1` (centres unmarked) [Example 79, 1-(4-Benzyl-3-(2,3-dihydroxypropyl)-3,4-dihydro-2H-benzo[b][1,4]oxazin-6-yl)-3-(1H-indol-6-yl)urea], the pIC50 is 5.00 to 6.00. Regarding `O=C(Nc1ccc2c(c1)N(Cc1ccccc1)C(CCO)CO2)Nc1ccc2cc[nH]c2c1` (centres unmarked) [Example 80, 1-(4-Benzyl-3-(2-hydroxyethyl)-3-,4-dihydro-2H-benzo[b][1,4]oxazin-6-yl)-3-(1H-indol-6-yl)urea], the pIC50 is 5.00 to 6.00.

For `N#CC1COc2ccc(NC(=O)Nc3ccc4cc[nH]c4c3)cc2N1Cc1ccccc1` (centres unmarked) [Example 81, 1-(4-Benzyl-3-cyano-3,4-dihydro-2H-benzo[b][1,4]oxazin-6-yl)-3-(1H-indol-6-yl)urea], the pIC50 was 5.00 to 6.00. `NCC1COc2ccc(NC(=O)Nc3ccc4cc[nH]c4c3)cc2N1Cc1ccccc1` (centres unmarked) [Example 82]: the pIC50 is under 5.00. As for `NC(=O)C1COc2ccc(NC(=O)Nc3ccc4cc[nH]c4c3)cc2N1Cc1ccccc1` (centres unmarked) [Example 83], the pIC50 is 5.00 to 6.00. For `NC(=O)C(c1ccccc1)N1CCOc2ccc(NC(=O)Nc3ccc4cc[nH]c4c3)cc21` (centres unmarked) [Example 84, 2-(6-(3-(1H-Indol-6-yl)ureido)-2,3-dihydro-4H-benzo[b][1,4]oxazin-4-yl)-2-phenylacetamide], the pIC50 was 5.00 to 6.00. As to `O=C(Nc1ccc2c(c1)N(C(CO)c1ccccc1)CCO2)Nc1ccc2cc[nH]c2c1` (centres unmarked) [Example 85, 1-(4-(2-Hydroxy-1-phenylethyl)-3,4-dihydro-2H-benzo[b][1,4]oxazin-6-yl)-3-(1H-indol-6-yl)urea], the pIC50 is 5.00 to 6.00. In the case of `COC(=O)C(c1ccccc1)N1CCOc2ccc(NC(=O)Nc3ccc4cc[nH]c4c3)cc21` (centres unmarked) [Example 86] it was 5.00 to 6.00; in that of `CN1C(=O)CSc2ccc(NC(=O)Nc3ccc4cc[nH]c4c3)cc21` [Example 87, 1-(1H-indol-6-yl)-3-(4-methyl-3-oxo-3,4-dihydro-2H-benzo[b][1, 4]thiazin-6-yl)urea], 5.00 to 6.00. As for `O=C1COc2cc(NC(=O)Nc3ccc4cc[nH]c4c3)ccc2N1` [Example 88, 1-(1H-indol-6-yl)-3-(3-oxo-3,4-dihydro-2H-benzo[b][1, 4]oxazin-7-yl)urea], the pIC50 was under 5.00. For the compound `O=C(Nc1ccc2c(c1)SCC(=O)N2Cc1c(F)cccc1Cl)Nc1ccc2cc[nH]c2c1` [Example 89, 1-(4-(2-chloro-6-fluorobenzyl)-3-oxo-3,4-dihydro-2H-benzo[b][1, 4]thiazin-7-yl)-3-(1H-indol-6-yl)urea], the pIC50 was at least 6.00.

For `CC1(C)Oc2cc(NC(=O)Nc3ccc4cc[nH]c4c3)ccc2N(Cc2ccccc2)C1=O` [Example 90, 1-(4-benzyl-2,2-dimethyl-3-oxo-3,4-dihydro-2H-benzo[b][1, 4]oxazin-7-yl)-3-(1H-indol-6-yl)urea], the pIC50 was 5.00 to 6.00. For the compound `Cc1cc2cc[nH]c2cc1NC(=O)Nc1ccc2c(c1)OCC(=O)N2Cc1ccccc1` [Example 91, 1-(4-benzyl-3-oxo-3,4-dihydro-2H-benzo[b][1, 4]oxazin-7-yl)-3-(5-methyl-1H-indol-6-yl)urea], the pIC50 is under 5.00. Turning to `Cc1cc2ccc(NC(=O)Nc3ccc4c(c3)OCC(=O)N4Cc3ccccc3)cc2[nH]1` [Example 92, 1-(4-benzyl-3-oxo-3,4-dihydro-2H-benzo[b][1, 4]oxazin-7-yl)-3-(2-methyl-1H-indol-6-yl)urea], the pIC50 was 5.00 to 6.00. Take `O=C(Nc1ccc2c(c1)OCC(=O)N2Cc1c(F)cccc1Cl)Nc1ccc2cc[nH]c2c1` [Example 93, l-(4-(2-chloro-6-fluorobenzy 1)-3-oxo-3,4-dihydro-2H-benzo[b][i, 4]oxazin-7-yl)-3-(1H-indol-6-yl)urea]: the pIC50 is 5.00 to 6.00. Consider `O=C(Nc1ccc2c(c1)OCC(=O)N2Cc1ccc(F)cc1Cl)Nc1ccc2cc[nH]c2c1` [Example 94, 1-(4-(2-chloro-4-fluorobenzy 1)-3-oxo-3,4-dihydro-2H-benzo[b][1,4]oxazin-7-yl)-3-(1H-indol-6-yl)urea], for which the pIC50 is at least 6.00. Consider `O=C(Nc1ccc2c(c1)OCC(=O)N2Cc1cccc(F)c1F)Nc1ccc2cc[nH]c2c1` [Example 95, 1-(4-(2,3-difluorobenzyl)-3-oxo-3,4-dihydro-2H-benzo[b][1, 4]oxazin-7-yl)-3-(1H-indol-6-yl)urea], for which the pIC50 was at least 6.00. In the case of `O=C(Nc1ccc2c(c1)OCC(=O)N2Cc1c(F)cccc1F)Nc1ccc2cc[nH]c2c1` [Example 96, 1-(4-(2,6-difluorobenzyl)-3-oxo-3,4-dihydro-2H-benzo [b][1, 4]oxazin-7-yl)-3-(1H-indol-6-yl)urea] it was under 5.00; in that of `O=C(Nc1ccc2c(c1)OCC(=O)N2CC1COc2ccccc2O1)Nc1ccc2cc[nH]c2c1` (centres unmarked) [Example 97, 1-(4-((2,3-dihydrobenzo[b][1,4]dioxin-2-yl)methyl)-3-oxo-3,4-dihydro-2H-benzo[b][1,4]oxazin-7-yl)-3-(1H-indol-6-yl)urea], at least 6.00; in that of `NC(=O)c1cccc(CN2C(=O)COc3cc(NC(=O)Nc4ccc5cc[nH]c5c4)ccc32)c1` [Example 98, 3-((7-(3-(1H-indol-6-yl)ureido)-3-oxo-2,3-dihydro-4H-benzo[b][1,4]oxazin-4-yl)methyl)benzamide], 5.00 to 6.00. To `O=C(Nc1ccc2c(c1)OCC(=O)N2Cc1cc(Cl)cc(C(F)(F)F)c1)Nc1ccc2cc[nH]c2c1` [Example 99, l-(4-(3-chloro-5-(trifluoromethyl)benzyl)-3-oxo-3,4-dihydro-2H-benzo[b][1, 4]oxazin-7-yl)-3-(1H-indol-6-yl)urea] belongs at least 6.00; to `O=C(Nc1ccc2c(c1)OCC(=O)N2CCOc1ccccc1Cl)Nc1ccc2cc[nH]c2c1` [Example 100, 1-(4-(2-(2-chlorophenoxy)ethyl)-3-oxo-3,4-dihydro-2H-benzo[b][1,4]oxazin-7-yl)-3-(1H-indol-6-yl)urea], 5.00 to 6.00. In the case of `O=C(Nc1ccc2c(c1)OCC(=O)N2Cc1ccccc1-c1ccccc1)Nc1ccc2cc[nH]c2c1` [Example 101, 1-(4-([1,1′-biphenyl]-2-ylmethyl)-3-oxo-3,4-dihydro-2H-benzo[b][1,4]oxazin-7-yl)-3-(1H-indol-6-yl)urea] it was at least 6.00. Turning to `O=C(Nc1ccc2c(c1)OCC(=O)N2Cc1cc(F)cc(Cl)c1)Nc1ccc2cc[nH]c2c1` [Example 102, 1-(4-(3-chloro-5-fluorobenzyl)-3-oxo-3,4-dihydro-2H-benzo[b][1,4]oxazin-7-yl)-3-(1H-indol-6-yl)urea], the pIC50 was at least 6.00. Regarding `O=C(Nc1ccc2c(c1)OCC(=O)N2Cc1cc2c(cc1Cl)OCO2)Nc1ccc2cc[nH]c2c1` [Example 103, 1-(4-((6-chlorobenzo[d][1,3]dioxol-5-yl)methyl)-3-oxo-3,4-dihydro-2H-benzo[b][1,4]oxazin-7-yl)-3-(1H-indol-6-yl)urea], the pIC50 is at least 6.00. To `O=C(Nc1ccc2c(c1)OCC(=O)N2Cc1ccc(C(F)(F)F)nc1)Nc1ccc2cc[nH]c2c1` [Example 104, 1-(1H-indol-6-yl)-3-(3-oxo-4-((6-(trifluoromethyl)pyridin-3-yl)methyl)-3,4-dihydro-2H-benzo[b][1,4]oxazin-7-yl)urea] belongs at least 6.00. Consider `O=C(Nc1ccc2c(c1)OCC(=O)N2Cc1cc(F)cc(F)c1)Nc1ccc2cc[nH]c2c1` [Example 105, 1-(4-(3,5-difluorobenzyl)-3-oxo-3,4-dihydro-2H-benzo[b][1,4]oxazin-7-yl)-3-(1H-indol-6-yl)urea], for which the pIC50 is at least 6.00.

`O=C(Nc1ccc2c(c1)OCC(=O)N2Cc1ccc(SC(F)(F)F)cc1)Nc1ccc2cc[nH]c2c1` [Example 106, 1-(1H-indol-6-yl)-3-(3-oxo-4-(4-((trifluoromethyl)thio)benzyl)-3,4-dihydro-2H-benzo[b][1,4]oxazin-7-yl)urea]: the pIC50 is at least 6.00.
